Laboratory results: ChEMBL document CHEMBL1629461, “The novel benzopyran class of selective cyclooxygenase-2 inhibitors. Part 2: the second clinical candidate having a shorter and favorable human half-life” (Bioorg Med Chem Lett, 2010)
Blank lines part the entries; values can stand above or below the compound they belong to.

What was measured:
[1] = system: Rattus norvegicus; experiment: Antiinflammatory activity in rat air pouch model assessed as inhibition of carrageenan-induced paw edema; type: functional
[2] = species on record: Rattus norvegicus; experiment: Antiinflammatory activity in rat air pouch model assessed as inhibition of carrageenan-induced inflammatory hyperalgesia; type: functional
[3] = species on record: Rattus norvegicus; experiment: Antiarthritic activity in rat assessed as inhibition of adjuent-induced arthritic pain; type: functional
[4] = species on record: Rattus norvegicus; experiment: Antiinflammatory activity in rat air pouch model assessed as inhibition of carrageenan-induced PGE2 production; type: functional
[5] = system: Cynomolgus monkey; experiment: Half life in cynomolgus monkey; type: ADME, organism-based, Macaca fascicularis; conditions: in vivo
[6] = species on record: Homo sapiens; experiment: (§1) Half life in human; type: ADME, organism-based; conditions: in vivo
[7] = system: Liver microsomes; experiment: Metabolic stability in human liver microsomes assessed as compound remaining; type: ADME, Microsome
[8] = target: T1, Prostaglandin G/H synthase 2 (Homo sapiens, UniProt P35354)
T1 sequence (P35354 whole entry): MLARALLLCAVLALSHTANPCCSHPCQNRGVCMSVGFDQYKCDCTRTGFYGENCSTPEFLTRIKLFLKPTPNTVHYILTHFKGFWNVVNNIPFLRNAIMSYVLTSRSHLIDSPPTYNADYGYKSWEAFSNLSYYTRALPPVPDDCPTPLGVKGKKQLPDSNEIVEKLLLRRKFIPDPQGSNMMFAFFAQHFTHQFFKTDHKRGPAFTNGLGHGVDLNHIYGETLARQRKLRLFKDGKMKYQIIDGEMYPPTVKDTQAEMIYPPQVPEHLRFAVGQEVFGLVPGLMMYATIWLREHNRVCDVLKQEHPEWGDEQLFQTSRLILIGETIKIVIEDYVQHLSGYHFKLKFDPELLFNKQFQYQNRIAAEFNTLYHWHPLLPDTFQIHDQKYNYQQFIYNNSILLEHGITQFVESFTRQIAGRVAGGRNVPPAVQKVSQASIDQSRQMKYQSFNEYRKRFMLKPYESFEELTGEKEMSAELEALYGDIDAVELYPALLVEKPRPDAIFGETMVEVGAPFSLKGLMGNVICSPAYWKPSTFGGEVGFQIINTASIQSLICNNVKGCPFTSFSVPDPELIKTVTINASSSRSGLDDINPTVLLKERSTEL

[9] = species on record: Rattus norvegicus; experiment: animal or person; conditions: read-out: INH
[10] = target: Prostaglandin G/H synthase 1 (Homo sapiens, UniProt P23219)
[11] = Half life in rat; type: ADME, organism-based; conditions: in vivo
[12] = Half life in dog; type: ADME, organism-based, Canis lupus familiaris; conditions: in vivo
[13] = as §1; type: ADME, organism-based; conditions: in vivo
[14] = species on record: Rattus norvegicus; experiment: animal or person; conditions: read-out: INH; remark: listed apart in the source

Sequence of Prostaglandin G/H synthase 1 (P23219 whole entry): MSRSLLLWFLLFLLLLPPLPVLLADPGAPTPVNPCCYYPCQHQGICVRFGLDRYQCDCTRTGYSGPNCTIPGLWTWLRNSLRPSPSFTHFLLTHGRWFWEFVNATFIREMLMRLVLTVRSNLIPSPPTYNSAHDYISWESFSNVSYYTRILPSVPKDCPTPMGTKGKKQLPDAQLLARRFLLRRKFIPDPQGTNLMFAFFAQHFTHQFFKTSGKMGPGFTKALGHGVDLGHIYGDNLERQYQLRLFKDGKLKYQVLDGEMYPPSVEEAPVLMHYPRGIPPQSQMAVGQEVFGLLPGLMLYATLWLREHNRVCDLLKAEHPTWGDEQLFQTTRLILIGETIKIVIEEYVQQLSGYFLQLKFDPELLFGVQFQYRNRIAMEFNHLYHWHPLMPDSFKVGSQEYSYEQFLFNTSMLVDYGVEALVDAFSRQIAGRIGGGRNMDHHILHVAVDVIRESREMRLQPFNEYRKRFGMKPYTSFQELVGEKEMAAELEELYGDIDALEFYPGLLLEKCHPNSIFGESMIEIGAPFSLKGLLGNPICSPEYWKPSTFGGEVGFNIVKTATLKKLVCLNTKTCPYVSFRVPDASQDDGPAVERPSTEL

t1/2 [5]: 14.2 h
t1/2 [6]: 360 h
Stability [7]: 100%
Structure (SMILES): O=C(O)C1=Cc2cc(Cl)cc(Cl)c2O[C@@H]1C(F)(F)F
ED50 [1]: 0.54 mg/kg
ED50 [2]: 2.6 mg/kg
ED50 [3]: 0.03 mg/kg
ED50 [4]: 0.54 mg/kg

IC50 [8]: < 28 nM
Structure (SMILES): CC(C)COc1c(Cl)cc2c(c1Cl)O[C@@H](C(F)(F)F)C(C(=O)O)=C2

Stability [7]: 51%
Structure (SMILES): CC(C)(C)c1cc2c(cc1Cl)C=C(C(=O)O)C(C(F)(F)F)O2 (configuration not stated)
inhibition in vivo at 10 mg/kg [9]: 100%

Structure (SMILES): CCCc1cc2c(cc1Cl)C=C(C(=O)O)C(C(F)(F)F)O2 (configuration not stated)
inhibition in vivo at 10 mg/kg [9]: 49%

Structure (SMILES): CC(C)CCc1cc2c(cc1Cl)C=C(C(=O)O)C(C(F)(F)F)O2 (configuration not stated)
inhibition in vivo at 10 mg/kg [9]: 51%

Structure (SMILES): CC(C)CSc1cc2c(cc1Cl)C=C(C(=O)O)C(C(F)(F)F)O2 (configuration not stated)
inhibition in vivo at 10 mg/kg [9]: 30%

Structure (SMILES): CC(C)CN(C)c1cc2c(cc1Cl)C=C(C(=O)O)C(C(F)(F)F)O2 (configuration not stated)
inhibition in vivo at 10 mg/kg [9]: 52%

Structure (SMILES): CCC(CC)COc1cc2c(cc1Cl)C=C(C(=O)O)C(C(F)(F)F)O2 (configuration not stated)
inhibition in vivo at 10 mg/kg [9]: 42%

Structure (SMILES): Nc1c(Cl)ccc2c1C=C(C(=O)O)C(C(F)(F)F)O2 (configuration not stated)
IC50 [10]: > 100000 nM

Structure (SMILES): CCOc1c(Cl)ccc2c1C=C(C(=O)O)C(C(F)(F)F)O2 (configuration not stated)
IC50 [10]: > 100000 nM
IC50 [8]: > 100000 nM

IC50 [10]: < 140 nM
IC50 [8]: < 6 nM
Structure (SMILES): O=C(O)C1=Cc2cc(Cl)c(OCC3CCCC3)c(Cl)c2OC1C(F)(F)F (configuration not stated)

IC50 [8]: < 21 nM
Structure (SMILES): CCC(CC)COc1c(Cl)cc2c(c1Cl)OC(C(F)(F)F)C(C(=O)O)=C2 (configuration not stated)

IC50 [10]: < 140 nM
IC50 [8]: < 28 nM
Structure (SMILES): CC(C)(C)Oc1c(Cl)cc2c(c1Cl)OC(C(F)(F)F)C(C(=O)O)=C2 (configuration not stated)

IC50 [8]: < 34 nM
Structure (SMILES): O=C(O)C1=Cc2cc(Cl)c(OCC3CCCCC3)c(Cl)c2OC1C(F)(F)F (configuration not stated)

half-life [11]: 4 h
half-life [12]: 18 h
half-life [13]: 34 h
Structure (SMILES): CC(C)(C)c1cc2c(cc1Cl)C=C(C(=O)O)[C@@H](C(F)(F)F)O2 [TIGEMOCOXIB]
ED50 [1]: 2.7 mg/kg
ED50 [2]: 4 mg/kg
ED50 [3]: 0.08 mg/kg
ED50 [4]: 0.43 mg/kg
inhibition in vivo at 2 mg/kg [14]: 100%
